From patent US8846013B2, “Topical application of 1-hydroxyl-3,5-BIS(4′hydroxy styryl)benzene” (Johnson & Johnson Consumer Companies, Inc., priority 2012, dated 2014) come the findings set out here.

One test has as its system Elastin. Put plainly: Induction of Elastin gene expression in primary human dermal fibroblasts (quantitative PCR). It counts as cell-based. Conditions: summary statement. The procedure: (§1) Primary human dermal fibroblasts (Lifeline Cell Technologies, Frederick, Md.) were grown until confluence in DMEM media (Invitrogen/Life Technologies, Carlsbad, 10 CA) with 10% FBS and 1% Penicillin-Streptomycin on 24 well tissue culture plates, followed by treatment with 1-hydroxyl 3,5-bis(4′hydroxyl styryl)benzene (0.1 ug/mL) with and without TNF-a for 48 hr. Post-treatment, cells were lysed using RLT buffer and total RNA was isolated using the RNeasy Mini Kit (Qiagen, Valencia, Calif.). Quantitative PCR was performed using the Gene Amp PCR System 9700 and 7500 Real Time PCR 15 System cycler (Applied Biosystems)/Life Technologies, Carlsbad, Calif.). Elastin (Qiagen) and Collagen1α1 primers (custom sequence-sense: 5′-TCC-CCA-GCT-GTC-TTA-TGG CT-3′ (SEQ ID NO: 1) and anti-sense: 5′-CAG-GCA-CGG-AAA-TTC-CTC-C-3′ (SEQ ID NO: 2)) were used. The housekeeping gene GAPDH was used for normalization (custom primer sequence: F 5′-ATC-TCT-GCC-CCC-TCT-GCT-G-3′ (SEQ ID NO: 3) and R 5′-ATG-GTT-CAC-ACC-CAT-GAC-GA-3′ (SEQ ID NO: 4); Invitrogen/Life Technologies, Carlsbad, Calif.). Fold-changes in PCR (normalized to 5 GAPDH) were calculated from untreated.

A further test concerns IL-8 cytokine release. Description: Anti-inflammatory activity: IL-8 cytokine release from UV-exposed epidermal equivalents (EPI 200 HCF). It counts as cell-based, human. The note with it: summary statement. The procedure:
The topical anti-inflammatory activities of 1-hydroxyl 3,5-bis(4′hydroxyl styryl)benzene and its piperazine salt were evaluated as follows.
Epidermal equivalents (EPI 200 HCF), multilayer and differentiated epidermis consisting of normal human epidermal keratinocytes, were purchased from MatTek (Ashland, Mass.). Upon receipt, epidermal equivalents were incubated for 24 hours at 37° C. in maintenance medium without hydrocortisone. Equivalents were topically treated (2 mg/cm^2) with 1-hydroxyl 3,5-bis(4′hydroxyl styryl)benzene thereof in a 70:30 Ethanol-Propylene glycol vehicle two hours before exposure to solar ultraviolet light (1000W-Oriel solar simulator equipped with a 1-mm Schott WG 320 filter; UV dose applied: 70 kJ/m^2 as measured at 360 nm). The equivalents were incubated for 24 hours at 37° C. with maintenance medium then supernatants were analyzed for IL-8 cytokine release using commercially available kits (Millipore Corp., Billerica, Mass.).

In the next test the test system is MMP-9. Put plainly: Inhibition of TNF-α-induced MMP-9 levels in epidermal equivalents (EPI 200 HCF). The class given is cell-based, human. Conditions: summary statement. The method, then: The ability of 1-hydroxyl 3,5-bis(4′hydroxyl styryl)benzene to inhibit TNF-a induced MMP-9 levels was tested at different concentrations as follows. The formation of TNF-α induced MMP-9 is involved in the undesirable breakdown of extracellular matrix in human skin.
Epidermal equivalents (EPI 200 HCF) were purchased from MatTek (Ashland, Mass.). Upon receipt, the epidermal equivalents were incubated for 24 hours at 37° C. in maintenance medium without hydrocortisone. The equivalents were topically treated (2 mg/cm^2) with 1-hydroxyl 3,5-bis(4′hydroxyl styryl)benzene extracts in a 70% ethanol/30% propylene glycol vehicle 2 hours before treatment with TNF-α (100 ng/mL). the equivalents were incubated for 48 hours at 37° C. with maintenance medium then supernatants were analyzed for MMP-9 using commercially available kits (R&D Systems, Minneapolis, Minn.).

For the next test, the system named is Collagen 1A. Description: Induction of Collagen1A gene expression in primary human dermal fibroblasts (quantitative PCR). The class given is cell-based. Conditions: for Collagen 1A Normalized Fold-change in PCR (Mean): 48 hr, normalized to GAPDH, from untreated. The procedure: as §1

SMILES strings stand for the structures.

For `Oc1ccc(/C=C/c2cc(O)cc(/C=C/c3ccc(O)cc3)c2)cc1` [1-hydroxyl 3,5-bis(4′hydroxylstyryl)benzene], in the test on Elastin, the “expression of genes associated with elastin production (in words)” value is on record as “increased”. In the test with IL-8 cytokine release, the “reduction in UV-induced inflammation in human skin cells (in words)” value was “strong reduction”. For the same compound, the “formation of TNF-α induced MMP-9 (in words)” value in the test with MMP-9 is “inhibited”. Moreover, the “Collagen 1A Normalized Fold-change in PCR (Mean)” value in the test on Collagen 1A (0.1 ug/mL with TNF-α (10 ng/mL)) is on record as 1.36; in the test on Collagen 1A (0.1 ug/mL, without TNF-a), 2.96. The “expression of genes associated with collagen production (in words)” value in the test with Collagen 1A (summary statement) was “increased”.
On to `Oc1ccc(C=Cc2cc(O)cc(C=Cc3ccc(O)cc3)c2)cc1` [1-hydroxyl 3,5-bis(4′hydroxylstyryl)benzene], for which the “reduction in UV-induced inflammation in human skin cells (in words)” value in the test with IL-8 cytokine release is reported as “strong reduction”.
